These results are taken from patent US6509356B1, “1-(4-(Substituted alkoxy)benzyl)naphthalene compounds having estrogen inhibitory activity” (Eli Lilly and Company, priority 1997, dated 2003).

Molecules are shown by their SMILES. Where a name gives a salt, the structure may show the parent alone.

The test concerns MCF-7 breast adenocarcinoma cells. Briefly: MCF-7 Proliferation Assay (tritiated thymidine incorporation). Format: cell-based. To be noted: Homo sapiens, MCF7; MCF-7 cells (ATCC HTB 22) in DCC-FBS assay medium, 48 hours with drug, then tritiated thymidine pulse for 4 hours; read-out: Inhibition of MCF7 cell proliferation: ED50. From the text:
Biological Activity of the Compounds of the Present Invention—MCF-7 Proliferation Assay
The data reported in each of the Examples given above for inhibition of MCF-7 cell proliferation were obtained in an assay which determined each compound's ability to inhibit the proliferation of MCF-7 breast adenocarcinoma cells.
In the assay, these cells (ATCC HTB 22) are maintained in minimal essential medium, phenol red-free, (Sigma, St. Louis, Mo.) supplemented with 10% (V/V) fetal bovine serum (FBS), L-glutamine (2 mM), sodium pyruvate (1 mM), HEPES {(N-[2-hydroxyethyl]piperazine-N′-[2-ethanesulfonic acid] 10 mM}, non-essential amino acids and bovine insulin (1 ug/mL) (maintenance medium). Ten days prior to assay, MCF-7 cells are switched to maintenance medium supplemented with 10% dextran coated charcoal stripped fetal bovine serum (DCC-FBS) assay medium) in place of 10% FBS to deplete internal stores of steroids. MCF-7 cells are removed from maintenance flasks using cell dissociation medium (Ca++/Mg++ free HBSS (phenol red-free) supplemented with 10 mM HEPES and 2 mM EDTA). Cells are washed twice with assay medium and adjusted to 80,000 cells/mL. Approximately […] (8,000 cells) are added to flat-bottom microculture wells (Costar 3596) and incubated at 37° C. in a 5% CO2 humidified incubator for 48 hours to allow for cell adherence and equilibration after transfer. Serial dilutions of drugs or DMSO as a diluent control are prepared in assay medium and […] to triplicate microcultures followed by […] assay medium for a final volume of […]. After an additional 48 hours at 37° C. in a 5% CO2 humidified incubator, microcultures are pulsed with tritiated thymidine (1 uCi/well) for 4 hours. Cultures are terminated by freezing at −70° C. for 24 hours followed by thawing and harvesting of microcultures using a Skatron Semiautomatic Cell Harvester. Samples are counted by liquid scintillation using a Wallac BetaPlace β counter.
Background: Dividing cells build labelled thymidine or BrdU into new DNA.
On to `CN1CCCC1COc1ccc(Cc2c(-c3ccc(O)cc3)ccc3cc(O)ccc23)cc1` (centres unmarked) [Example 1, 6-Hydroxy-2-(4-hydroxyphenyl)-1-[4-(N-methylpyrrolidin-2-yl)methoxy-benzyl]naphthalene hydrochloride], for which the EC50 stood at 0.5 nM.

With `CCN(CC)CCCOc1ccc(Cc2c(-c3ccc(O)cc3)ccc3cc(O)ccc23)cc1` [Example 2, 6-Hydroxy-2-(4-hydroxyphenyl)-1-[4-(3-(N,N-diethylamino)-propoxy)benzyl]naphthalene hydrochloride], the EC50 amounted to 0.9 nM. With `CC(C)N(CCOc1ccc(Cc2c(-c3ccc(O)cc3)ccc3cc(O)ccc23)cc1)C(C)C` [Example 3, 6-hydroxy-2-(4-hydroxyphenyl)-1-[4-(2-(N,N-diisopropyl-amino)ethoxy)benzyl]naphthalene hydrochloride], the EC50 turned out to be 2 nM.

On to `CN1CCCCC1COc1ccc(Cc2c(-c3ccc(O)cc3)ccc3cc(O)ccc23)cc1` (centres unmarked) [Example 4, 6-hydroxy-2-(4-hydroxyphenyl)-1-[4-(N-methylpiperidin-2-yl)-methoxybenzyl]naphthalene hydrochloride], for which the EC50 was determined as 2 nM. The result for `CN1CCCC(COc2ccc(Cc3c(-c4ccc(O)cc4)ccc4cc(O)ccc34)cc2)C1` (centres unmarked) [Example 5, 6-hydroxy-2-(4-hydroxyphenyl)-1-[4-(N-methylpiperidin-3-yl)-methoxybenzyl]naphthalene hydrochloride] reads 2 nM; that for `CCCCN(CCCC)CCOc1ccc(Cc2c(-c3ccc(O)cc3)ccc3cc(O)ccc23)cc1` [Example 6, 6-hydroxy-2-(4-hydroxyphenyl)-1-[4-(2-(N,N-di-n-butylamino)-ethoxy)benzyl]naphthalene hydrochloride], 2 nM.

For the compound `CCCCN(CCCC)CCCOc1ccc(Cc2c(-c3ccc(O)cc3)ccc3cc(O)ccc23)cc1` [Example 7, 6-hydroxy-2-(4-hydroxyphenyl)-1-[4-(3-(N,N-di-n-butylamino)-propoxy)benzyl]naphthalene hydrochloride], the EC50 amounted to 4 nM. The result for `CC(=O)c1ccc(N2CCN(CCOc3ccc(Cc4c(-c5ccc(O)cc5)ccc5cc(O)ccc45)cc3)CC2)cc1` [Example 8, 6-hydroxy-2-(4-hydroxyphenyl)-1-[4-(2-(4-(4-acetylphenyl)piperazin-1-yl)ethoxy)benzyl]-naphthalene dihydrochloride] reads 4 nM; that for `Oc1ccc(-c2ccc3cc(O)ccc3c2Cc2ccc(OCCCNc3cccc4ccccc34)cc2)cc1` [Example 9, 6-hydroxy-2-(4-hydroxyphenyl)-1-[4-(3-(naphth-1-ylamino)propoxy)benzyl]naphthalene hydrochloride], 9 nM. The result for `CCN(CCOc1ccc(Cc2c(-c3ccc(O)cc3)ccc3cc(O)ccc23)cc1)C(=O)Nc1cc(Cl)ccc1C` [Example 11, N-ethyl-N-[4-(2-(6-hydroxy-2-(4-hydroxyphenyl)naphth-1-yl-methyl)phenoxy)ethyl]-N′-5-chloro-2-methylphenyl urea] reads 10 nM. For `CC1CN(CCOc2ccc(Cc3c(-c4ccc(O)cc4)ccc4cc(O)ccc34)cc2)CC(C)O1` (centres unmarked) [Example 13, 6-hydroxy-2-(4-hydroxyphenyl)-1-[4-(2-(2,6-dimethylmorpholin-4-yl)ethoxy)benzyl]naphthalene hydrochloride], the EC50 was determined as 20 nM.

With `Oc1ccc(-c2ccc3cc(O)ccc3c2Cc2ccc(OCCCN3CCC4(CCCCC4)CC3)cc2)cc1` [Example 14, hydrochloride], the EC50 is 30 nM.

In the case of `O=C1CCCN1CCOc1ccc(Cc2c(-c3ccc(O)cc3)ccc3cc(O)ccc23)cc1` [Example 15, 6-hydroxy-2-(4-hydroxyphenyl)-1-[4-(2-(pyrollidinon-1-yl)ethoxy)benzyl]naphthalene], the EC50 came out at 40 nM. The result for `O=C1CCCN1CCCOc1ccc(Cc2c(-c3ccc(O)cc3)ccc3cc(O)ccc23)cc1` [Example 16, 6-hydroxy-2-(4-hydroxyphenyl)-1-[4-(3-(pyrollidinon-1-yl)propoxy)benzyl]naphthalene] reads 30 nM.
